Test results published in US9994548B2, “Phenyl-substituted nicotinic ligands, and methods of use thereof” (Georgetown University, priority 2011, dated 2018).

Assays:
[1] = target: T1, 5-HT3 receptors (Homo sapiens, UniProt P46098); assay: NIMH PDSP primary binding assay; settings: 10 μM
T1 sequence (P46098 24-478): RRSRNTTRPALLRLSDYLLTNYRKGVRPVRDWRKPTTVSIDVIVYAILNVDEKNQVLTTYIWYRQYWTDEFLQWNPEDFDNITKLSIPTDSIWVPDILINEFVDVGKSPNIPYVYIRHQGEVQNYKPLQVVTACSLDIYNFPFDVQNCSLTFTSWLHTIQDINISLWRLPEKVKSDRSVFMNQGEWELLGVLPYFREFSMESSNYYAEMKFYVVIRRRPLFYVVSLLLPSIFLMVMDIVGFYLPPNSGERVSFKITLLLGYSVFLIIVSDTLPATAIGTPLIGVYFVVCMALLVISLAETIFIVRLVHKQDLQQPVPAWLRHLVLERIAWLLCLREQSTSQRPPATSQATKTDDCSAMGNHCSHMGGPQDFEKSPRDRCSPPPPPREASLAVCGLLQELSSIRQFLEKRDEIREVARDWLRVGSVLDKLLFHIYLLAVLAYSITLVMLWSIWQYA
Procedure: (§1) All binding assays for targets other than nAChRs were performed by the National Institute of Mental Health's Psychoactive Drug Screening Program (PDSP) supported by NIMH grant HHSN-271-2008-00025-C(PI: Bryan Roth). For experimental details (Ki determinations, receptor binding profiles, functional data, MDR1 data, etc. as appropriate) refer to the PDSP web site http://pdsp.med.unc.edu/.
The compound either is not a “hit” in primary binding assays, or showing at least 3,000-fold lower binding affinities than that for α4β2 nAChRs in secondary binding assays (FIG. 19,).

[2] = test system: 41 other targets, including many CNS receptors and transporters; assay: NIMH PDSP binding assays for targets other than nAChRs
Procedure: as §1
To determine affinities of the lead compound, VMY-2-95, for targets other than neuronal nAChRs, we tested VMY-2-95 in binding assays using 41 other targets, including many CNS receptors and transporters. […] The Ki values of VMY-2-95 at these 9 targets were determined by performing secondary binding assays using a series of concentrations of VMY-2-95. […] Furthermore, the binding affinity of VMY-2-95 for α4β2 nAChRs is at least 3,000 times higher than that for any of those 9 targets.

[3] = test system: locomotor activity; assay: Locomotor activity in figure-8 maze; format: in vivo, rat; settings: 1-hour session
Procedure: The studies were conducted in accordance with the regulations outlined by the Duke University Animal Care and Use Committee. The rats housed in approved standard laboratory conditions in a Duke University vivarium facility near the testing room to minimize stress induced by transporting the rats. The rats were kept on a 12:12 reverse day/night cycle, so that they were in their active phase during behavioral testing. The rats in the drug iv self-administration studies were singly housed to prevent them from damaging each other's catheters. The rats in the locomotor activity studies were housed in groups of 2-3. All rats were allowed access to water at all times; the rats in the nicotine-self-administration study were fed daily approximately 30 minutes after completing the sessions while those in the locomotor activity study had continuous access to food.
VMY-2-95 was injected s.c. 10 minutes before testing in a volume of 1 mL/kg of saline. The doses (0, 0.3, 1 and 3 mg/kg) were given in a counterbalanced order with at least two days between successive injections.
Another set of rats (N=12) was tested for acute VMY-2-95 effects on locomotor activity in a figure-8 maze over the course of a 1-hour session (see FIG. 10). […] Numbers of photobeam breaks were recorded for five minutes blocks over the one-hour session. […]

[4] = 10 μM, 41 targets, primary binding assays

C(#Cc1cncc(OC[C@@H]2CCN2)c1)c1ccccc1 [VMY-2-95, (S)-3-(azetidin-2-ylmethoxy)-5-(phenylethynyl)pyridine]
primary binding result at 5-HT3 receptors [1]: not a “hit”
number of targets "hit" (more than 50% inhibition of binding) [2, 4]: 9
number of targets "miss" (less than 50% inhibition of binding) [2, 4]: 32
binding affinity for α4β2 nAChRs relative to the 9 hit targets ([2]; Ki from secondary binding assays): at least 3,000 times
dose at peak of increased locomotor activity ([3]; s.c.): 1 mg/kg
locomotor activity ([3]; three doses tested (0.3, 1, 3 mg/kg s.c.)): significantly increased
